According to paper PMC10177510, “A Multicenter, Open-Label, Phase I/II Study of FN-1501 in Patients with Advanced Solid Tumors” (Cancers, 2023):

Tested on: advanced solid tumors
Test: Anti-tumor activity in patients (RECIST best response, PFS, OS)
Format: in vivo, human
Method: Among 64 pts enrolled in the trial, 16 failed screening and 48 (75%) were treated with FN-1501 at one of the dose levels tested. Eligible pts were ≥18 years of age with (a) relapsed or refractory AML that had exhausted or was ineligible for therapeutic options, or with ≥5% blasts in the bone marrow according to World Health Organization (WHO) 2016 criteria; or (b) solid tumors evaluable per RECIST v1.1 that had exhausted (or were ineligible for) therapeutic options likely to convey clinical benefit. Other inclusion criteria included Eastern Cooperative Oncology Group (ECOG) performance status (PS) of <2 and life expectancy ≥3 months. Pts with a clinically controlled central nervous system (CNS) tumor or metastasis and adequate organ function were eligible to participate. Ongoing use of strong CYP3A inhibitors or inducers was exclusionary unless participants were willing and able to change to use of an equivalent medication without this profile. Other exclusion criteria included current or recent major surgical procedures, anticancer therapy (chemotherapy, immunotherapy), biologic, live virus vaccine, or investigational therapy within 21 days prior to initiation of the study treatment. For patients in the AML cohort, acute promyelocytic leukemia (APML), chronic myelogenous leukemia in blast crisis (BCR-ABL), or active CNS leukemia were exclusionary.
Descriptive statistics were used for all safety, PK, and efficacy parameters. Data were summarized using descriptive statistics (number of pts, mean, median, standard deviation, minimum, and maximum) for continuous variables and using frequencies and percentages for discrete variables. Time-to-event variables were summarized using Kaplan–Meier methods and figures for the estimated median time.

## CN1CCN(Cc2ccc(NC(=O)c3[nH]ncc3Nc3ncnc4[nH]ccc34)cc2)CC1 [FN-1501]
2.5 mg/day, N = 4, ITT
  Complete Response, best RECIST response, n (%): 0
  DCR: 0.0%
  Landmark Progression Free Survival Rate at 3 months (Table S6, Overall Survival): 37.5%
  Landmark Progression Free Survival Rate at 6 months (Table S6, Overall Survival): 37.5%
  Landmark Progression Free Survival Rate at 9 months (Table S6, Overall Survival): 37.5%
  Landmark Progression Free Survival Rate at 12 months (Table S6, Overall Survival): 37.5%
  Median overall survival: 2.0 months
  Median progression-free survival: 1.8 months
  ORR: 0.0%
  Partial Response, best RECIST response, n (%): 0
  Progression Free Survival Rate at 3 months: 0.0%
  Progression Free Survival Rate at 6 months: 0.0%
  Progression Free Survival Rate at 9 months: 0.0%
  Progression Free Survival Rate at 12 months: 0.0%
  Progressive Disease, best RECIST response, n (%): 3
  Stable Disease, best RECIST response, n (%): 0
5 mg/day, N = 3, ITT
  Complete Response, best RECIST response, n (%): 0
  DCR: 0.0%
  Landmark Progression Free Survival Rate at 3 months (Table S6, Overall Survival): 50.0%
  Landmark Progression Free Survival Rate at 6 months (Table S6, Overall Survival): 0.0%
  Landmark Progression Free Survival Rate at 9 months (Table S6, Overall Survival): 0.0%
  Landmark Progression Free Survival Rate at 12 months (Table S6, Overall Survival): 0.0%
  Median overall survival: 2.6 months
  Median progression-free survival: 1.7 months
  ORR: 0.0%
  Partial Response, best RECIST response, n (%): 0
  Progression Free Survival Rate at 3 months: 0.0%
  Progression Free Survival Rate at 6 months: 0.0%
  Progression Free Survival Rate at 9 months: 0.0%
  Progression Free Survival Rate at 12 months: 0.0%
  Progressive Disease, best RECIST response, n (%): 2
  Stable Disease, best RECIST response, n (%): 0
10 mg/day, N = 5, ITT
  Complete Response, best RECIST response, n (%): 0
  DCR: 20.0%
  Landmark Progression Free Survival Rate at 3 months (Table S6, Overall Survival): 60.0%
  Landmark Progression Free Survival Rate at 6 months (Table S6, Overall Survival): 60.0%
  Landmark Progression Free Survival Rate at 9 months (Table S6, Overall Survival): 60.0%
  Landmark Progression Free Survival Rate at 12 months (Table S6, Overall Survival): 60.0%
  Median progression-free survival: 1.4 months
  ORR: 0.0%
  Partial Response, best RECIST response, n (%): 0
  Progression Free Survival Rate at 3 months: 20.0%
  Progression Free Survival Rate at 6 months: 0.0%
  Progression Free Survival Rate at 9 months: 0.0%
  Progression Free Survival Rate at 12 months: 0.0%
  Progressive Disease, best RECIST response, n (%): 2
  Stable Disease, best RECIST response, n (%): 1 (20)
15 mg/day, N = 3, ITT
  Complete Response, best RECIST response, n (%): 0
  DCR: 100.0%
  Median progression-free survival: 4.1 months
  ORR: 0.0%
  Partial Response, best RECIST response, n (%): 0
  Progression Free Survival Rate at 6 months: 33.3%
  Progression Free Survival Rate at 9 months: 0.0%
  Progression Free Survival Rate at 12 months: 0.0%
  Progressive Disease, best RECIST response, n (%): 0
  Stable Disease, best RECIST response, n (%): 3 (100)
22.5 mg/day, N = 4, ITT
  Complete Response, best RECIST response, n (%): 0
  DCR: 50.0%
  Landmark Progression Free Survival Rate at 3 months (Table S6, Overall Survival): 50.0%
  Landmark Progression Free Survival Rate at 6 months (Table S6, Overall Survival): 50.0%
  Landmark Progression Free Survival Rate at 9 months (Table S6, Overall Survival): 25.0%
  Landmark Progression Free Survival Rate at 12 months (Table S6, Overall Survival): 25.0%
  Median overall survival: 5.4 months
  Median progression-free survival: 5.0 months
  ORR: 0.0%
  Partial Response, best RECIST response, n (%): 0
  Progression Free Survival Rate at 3 months: 50.0%
  Progression Free Survival Rate at 6 months: 50.0%
  Progression Free Survival Rate at 9 months: 25.0%
  Progression Free Survival Rate at 12 months: 25.0%
  Progressive Disease, best RECIST response, n (%): 2 (50)
  Stable Disease, best RECIST response, n (%): 2 (50)
30 mg/day, N = 3, ITT
  Complete Response, best RECIST response, n (%): 0
  DCR: 100.0%
  Median progression-free survival: 3.4 months
  ORR: 0.0%
  Partial Response, best RECIST response, n (%): 0
  Progression Free Survival Rate at 3 months: 50.0%
  Progression Free Survival Rate at 6 months: 0.0%
  Progression Free Survival Rate at 9 months: 0.0%
  Progression Free Survival Rate at 12 months: 0.0%
  Progressive Disease, best RECIST response, n (%): 0
  Stable Disease, best RECIST response, n (%): 3 (100)
40 mg/day cohort, efficacy evaluable population
  Patients with best response of partial response (PR) by RECIST: 25%
40 mg/day, N = 4, ITT
  Complete Response, best RECIST response, n (%): 0
  DCR: 50.0%
  Landmark Progression Free Survival Rate at 3 months (Table S6, Overall Survival): 75.0%
  Landmark Progression Free Survival Rate at 6 months (Table S6, Overall Survival): 75.0%
  Landmark Progression Free Survival Rate at 9 months (Table S6, Overall Survival): 75.0%
  Landmark Progression Free Survival Rate at 12 months (Table S6, Overall Survival): 75.0%
  Median progression-free survival: 2.6 months
  ORR: 25.0%
  Partial Response, best RECIST response, n (%): 1
  Progression Free Survival Rate at 3 months: 33.3%
  Progression Free Survival Rate at 6 months: 0.0%
  Progression Free Survival Rate at 9 months: 0.0%
  Progression Free Survival Rate at 12 months: 0.0%
  Progressive Disease, best RECIST response, n (%): 1 (25)
  Stable Disease, best RECIST response, n (%): 1 (25)
54 mg/day, N = 3, ITT
  Complete Response, best RECIST response, n (%): 0
  DCR: 0.0%
  Landmark Progression Free Survival Rate at 3 months (Table S6, Overall Survival): 66.7%
  Landmark Progression Free Survival Rate at 6 months (Table S6, Overall Survival): 0.0%
  Landmark Progression Free Survival Rate at 9 months (Table S6, Overall Survival): 0.0%
  Landmark Progression Free Survival Rate at 12 months (Table S6, Overall Survival): 0.0%
  Median overall survival: 3.2 months
  Median progression-free survival: 1.4 months
  ORR: 0.0%
  Partial Response, best RECIST response, n (%): 0
  Progression Free Survival Rate at 3 months: 0.0%
  Progression Free Survival Rate at 6 months: 0.0%
  Progression Free Survival Rate at 9 months: 0.0%
  Progression Free Survival Rate at 12 months: 0.0%
  Progressive Disease, best RECIST response, n (%): 2
  Stable Disease, best RECIST response, n (%): 0
72 mg/day, N = 3, ITT
  Complete Response, best RECIST response, n (%): 0
  DCR: 0.0%
  Median progression-free survival: 1.3 months
  ORR: 0.0%
  Partial Response, best RECIST response, n (%): 0
  Progression Free Survival Rate at 3 months: 0.0%
  Progression Free Survival Rate at 6 months: 0.0%
  Progression Free Survival Rate at 9 months: 0.0%
  Progression Free Survival Rate at 12 months: 0.0%
  Progressive Disease, best RECIST response, n (%): 3
  Stable Disease, best RECIST response, n (%): 0
96 mg/day, N = 5, ITT
  Complete Response, best RECIST response, n (%): 0
  DCR: 40.0%
  Landmark Progression Free Survival Rate at 3 months (Table S6, Overall Survival): 75.0%
  Landmark Progression Free Survival Rate at 6 months (Table S6, Overall Survival): 37.5%
  Landmark Progression Free Survival Rate at 9 months (Table S6, Overall Survival): 37.5%
  Landmark Progression Free Survival Rate at 12 months (Table S6, Overall Survival): 37.5%
  Median overall survival: 3.1 months
  Median progression-free survival: 2.7 months
  ORR: 0.0%
  Partial Response, best RECIST response, n (%): 0
  Progression Free Survival Rate at 3 months: 37.5%
  Progression Free Survival Rate at 6 months: 0.0%
  Progression Free Survival Rate at 9 months: 0.0%
  Progression Free Survival Rate at 12 months: 0.0%
  Progressive Disease, best RECIST response, n (%): 0
  Stable Disease, best RECIST response, n (%): 2 (40)
128 mg/day, N = 3, ITT
  Complete Response, best RECIST response, n (%): 0
  Median progression-free survival: 3.1 months
  ORR: 0.0%
  Partial Response, best RECIST response, n (%): 0
  Progression Free Survival Rate at 3 months: 66.7%
  Progression Free Survival Rate at 6 months: 0.0%
  Progression Free Survival Rate at 9 months: 0.0%
  Progression Free Survival Rate at 12 months: 0.0%
  Progressive Disease, best RECIST response, n (%): 1 (33)
  Stable Disease, best RECIST response, n (%): 1 (33)
170 mg/day, N = 4, ITT
  Complete Response, best RECIST response, n (%): 0
  DCR: 50.0%
  Median progression-free survival: 2.2 months
  ORR: 0.0%
  Partial Response, best RECIST response, n (%): 0
  Progression Free Survival Rate at 3 months: 33.3%
  Progression Free Survival Rate at 6 months: 33.3%
  Progression Free Survival Rate at 9 months: 33.3%
  Progression Free Survival Rate at 12 months: 0.0%
  Progressive Disease, best RECIST response, n (%): 1 (25)
  Stable Disease, best RECIST response, n (%): 2 (50)
226 mg/day, N = 4, ITT
  Complete Response, best RECIST response, n (%): 0
  DCR: 0.0%
  Landmark Progression Free Survival Rate at 3 months (Table S6, Overall Survival): 66.7%
  Landmark Progression Free Survival Rate at 6 months (Table S6, Overall Survival): 66.7%
  Landmark Progression Free Survival Rate at 9 months (Table S6, Overall Survival): 66.7%
  Landmark Progression Free Survival Rate at 12 months (Table S6, Overall Survival): 66.7%
  Median progression-free survival: 1.1 months
  ORR: 0.0%
  Partial Response, best RECIST response, n (%): 0
  Progression Free Survival Rate at 3 months: 0.0%
  Progression Free Survival Rate at 6 months: 0.0%
  Progression Free Survival Rate at 9 months: 0.0%
  Progression Free Survival Rate at 12 months: 0.0%
  Progressive Disease, best RECIST response, n (%): 1 (25)
  Stable Disease, best RECIST response, n (%): 0
1 patient, 40 mg/day, advanced endometrial cancer
  Duration of partial response: 4.2 months
Total, N = 48, ITT
  Complete Response, best RECIST response, n (%): 0
  DCR: 33.3%
  Landmark Progression Free Survival Rate at 3 months (Table S6, Overall Survival): 71.7%
  Median overall survival: 8.2 months
  Median progression-free survival: 1.8 months
  ORR: 2.1%
  Partial Response, best RECIST response, n (%): 1 (2)
  Progression Free Survival Rate at 3 months: 31.1%
  Progression Free Survival Rate at 6 months: 11.3%
  Progression Free Survival Rate at 9 months: 5.7%
  Progression Free Survival Rate at 12 months: 2.8%
  Progressive Disease, best RECIST response, n (%): 18
  Stable Disease, best RECIST response, n (%): 15 (31)
All doses
  Patients with progressive disease (PD) as best response by RECIST: 38%
  Patients with stable disease (SD) as best response by RECIST: 31%
  Remaining response-evaluable pts with PD: 67%
